Measured values taken from patent US8975252B2, “Morpholine derivative” (Shanghai Pharmaceuticals Holding Co., Ltd., priority 2007, dated 2015).
Counter-ions that a name gives are not always drawn. Like-named read-outs stand apart in the source and are kept apart here.

Target: Recombinant human renin (Homo sapiens (Human), UniProt P00797)
Assay: Inhibitory activity against human renin (fluorogenic synthetic peptide substrate)
Type: biochemical
Method: Inhibitory Activity Against Human Renin
A renin substrate of synthetic peptide (Nma-KHPFH LVIHK(Dnp)-NH2) and test compound were mixed, and fluorescence intensity was assayed using a fluorophotometer before starting an enzymatic reaction (exciting wavelength: 340 nm, measuring wavelength: 460 nm). Recombinant human renin was added and the mixture was incubated at 37° C. for an hour, and the fluorescence intensity was measured after the reaction using a fluorophotometer (exciting wavelength: 340 nm, measuring wavelength: 460 nm). Renin activity was evaluated on the ground of fluorescence intensity which was obtained by deduction of the intensity before the reaction from the intensity after the reaction, and 50% inhibitory concentration (IC50) was calculated from renin activities under the existence of various concentration of the tested compound.

[1] = recombinant human renin, substrate Nma-KHPFH LVIHK(Dnp)-NH2, 37° C. for an hour, fluorescence, read-out: Inhibitory Activity against human Renin(IC50)

Chain of Recombinant human renin (P00797 67-406): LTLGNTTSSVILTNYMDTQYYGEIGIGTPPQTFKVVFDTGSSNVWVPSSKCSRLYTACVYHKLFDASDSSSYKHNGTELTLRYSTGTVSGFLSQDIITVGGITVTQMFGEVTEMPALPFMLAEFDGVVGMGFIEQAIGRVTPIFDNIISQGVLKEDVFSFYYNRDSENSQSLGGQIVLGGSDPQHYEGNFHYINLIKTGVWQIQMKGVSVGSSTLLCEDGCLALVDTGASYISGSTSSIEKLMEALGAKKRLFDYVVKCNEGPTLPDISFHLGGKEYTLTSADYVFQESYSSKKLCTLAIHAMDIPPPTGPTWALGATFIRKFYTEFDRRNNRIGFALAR

SMILES	IC50 (assay for renin-inhibition, read-out: renin-inhibition IC50) [µM]	IC50 [1] [µM]
COCCCOc1cc(CN(C(=O)[C@H]2CNCCO2)C2CC2)ccc1OC [(2R)—N-cyclopropyl-N-[4-methoxy-3-(3-methoxypropoxy)benzyl]morpholine-2-carboxamide hydrochloride]	< 1	
COCCCn1cc(CN(C(=O)[C@H]2CNCCO2)C2CC2)c2ccccc21 [Example 39]		0.013
COCCCOc1cc(CN(C(=O)[C@H]2CNCCO2)C2CC2)cc2ccccc12 [Example 4, (2R)—N-cyclopropyl-N-{[4-(3-methoxypropoxy)-2-naphthyl]methyl}morpholin-2-carboxamide hydrochloride]		0.0302
